For orientation: EC50 means the concentration that produces a half-maximal response. Read a high EC50 as weaker potency.

STING, sequence (Q86WV6 whole entry R71H/G230A/H232R/R293Q): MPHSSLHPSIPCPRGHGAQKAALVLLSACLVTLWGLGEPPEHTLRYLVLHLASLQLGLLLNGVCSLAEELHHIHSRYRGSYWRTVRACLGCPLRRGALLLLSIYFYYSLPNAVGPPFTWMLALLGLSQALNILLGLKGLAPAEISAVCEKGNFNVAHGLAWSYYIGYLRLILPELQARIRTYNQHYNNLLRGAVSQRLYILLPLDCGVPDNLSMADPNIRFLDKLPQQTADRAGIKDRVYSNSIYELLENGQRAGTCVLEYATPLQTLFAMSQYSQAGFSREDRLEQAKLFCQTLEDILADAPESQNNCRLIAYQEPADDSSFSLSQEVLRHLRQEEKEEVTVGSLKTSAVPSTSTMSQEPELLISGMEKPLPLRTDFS

The target in one experiment is STING (Homo sapiens, UniProt Q86WV6, G230A/H232R/R293Q/R71H). Nature of the experiment: STING reporter assay: THP1-Dual KO-IFNAR2 cells stimulated with 2′3′cGAMP, luciferase reporter activity. The format is cell-based. The conditions noted are these: 15 μM 2′3′cGAMP, 24h, class symbols. The method, boiled down:
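THP1-Dual KO-IFNAR2 cells (2×10E6 cells/mL) treated with compounds at 0.0017-100 μM, then stimulated with 2′3′cGAMP (15 μM final) delivered by Lipofectamine 2000; 24 h at 37° C. Supernatant luciferase read by QUANTI-Luc Plus luminescence; EC50 from dose-response.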
A general note: A reporter such as luciferase makes a cellular process visible.
Turning to `Cc1cc(NC(=O)Nc2ccc(C(F)(F)F)cc2)cc2[nH]cc(C#N)c12` [Compound 533], the EC50 is 1 to 5 µM. For `CC(=O)n1cc(F)c2ccc(NC(=O)Nc3ccc(C(F)(F)F)cc3)cc21` [Compound 534, 1-(1-acetyl-3-fluoro-1H-indol-6-yl)-3-(4-(trifluoromethyl)phenyl)urea], the EC50 lay within 0.2 to 1 µM. The same measure, in the same setting: for `O=C(Nc1cc(F)cc(C(F)(F)F)c1)Nc1ccc2c(F)c[nH]c2c1` [Compound 535] the value was 0.2 to 1 µM; for `O=C(NCc1cc(Cl)cc(C(F)(F)F)c1)Nc1cc(Cl)c2cc[nH]c2c1` [Compound 536], 0.2 to 1 µM. Still for that read-out and setting: next, `CC(NC(=O)Nc1cc(Cl)c2cc[nH]c2c1)c1cc(Cl)cc(C(F)(F)F)c1` (stereo not drawn) [Compound 537]: 0.2 to 1 µM; `O=C(NCc1cc(Cl)cc(C(F)(F)F)c1)Nc1ccc2c(F)c[nH]c2c1` [Compound 538]: 5 to 100 µM; `N#Cc1c[nH]c2cc(NC(=O)Nc3cccc(C(F)(F)F)c3)ccc12` [Compound 539]: 5 to 100 µM. On the same count and under the same terms, next, `CNC(=O)Cc1c[nH]c2cc(NC(=O)Nc3ccc(C(F)(F)F)cc3)ccc12` [Compound 540]: 5 to 100 µM; `O=C(Nc1cc(Cl)c2cc[nH]c2c1)NC1CCC2(CCCCC2)CC1` [Compound 542]: 0.2 to 1 µM. On to `CNC(=O)c1cc(NC(=O)Nc2ccc(C(F)(F)F)cc2)cc2[nH]ccc12` [Compound 543], for which the concentration giving a half-maximal response (EC50) lay within 5 to 100 µM.

For `CN(C)Cc1cc(NC(=O)Nc2ccc(C(F)(F)F)cc2)cc2[nH]ccc12` [Compound 546], the half-maximal effective concentration (EC50) was 5 to 100 µM. `CN(C)C(=O)c1cc(NC(=O)Nc2ccc(C(F)(F)F)cc2)cc2[nH]ccc12` [Compound 547] showed a 50% effective concentration (EC50) of 5 to 100 µM. On the same count and under the same terms, next, `O=C(Nc1ccc(C2CC(F)(F)C2)c(F)c1)Nc1cc(Cl)c2cc[nH]c2c1` [Compound 548]: 0.04 to 0.2 µM; `Cc1ccc2nc(Nc3ccc4cc[nH]c4c3)ccc2c1C(F)(F)F` [Compound 549]: 0.2 to 1 µM. The same measure, in the same setting: next, `Fc1ccc2nc(Nc3ccc4cc[nH]c4c3)ccc2c1C(F)(F)F` [Compound 550]: 0.2 to 1 µM. Same read-out and setting: for `Fc1cc2ccc(Nc3ccc4cc[nH]c4c3)nc2cc1C(F)(F)F` [Compound 551] the value was 0.2 to 1 µM; for `Cc1cc2ccc(Nc3ccc4cc[nH]c4c3)nc2cc1C(F)(F)F` [Compound 552], 0.2 to 1 µM; for `FC(F)(F)c1c(Cl)ccc2nc(Nc3ccc4cc[nH]c4c3)ccc12` [Compound 553], 0.2 to 1 µM. In turn, `Fc1cc(C(F)(F)F)cc2nc(Nc3ccc4cc[nH]c4c3)ccc12` [Compound 554] yielded a half-maximal effective concentration (EC50) of 1 to 5 µM. Turning to `FC(F)(F)c1ccc2ncc(Nc3ccc4cc[nH]c4c3)nc2c1` [Compound 555], the EC50 is 1 to 5 µM. The same measure, in the same setting: next, `FC(F)(F)c1cc2nc(Nc3ccc4cc[nH]c4c3)ccc2cc1Cl` [Compound 556]: 1 to 5 µM; `Fc1cc(C(F)(F)F)c2ccc(Nc3ccc4cc[nH]c4c3)nc2c1` [Compound 558]: 0.2 to 1 µM.

Molecule `c1cnc2nc(Nc3ccc4ccn(-c5ccc6cccnc6n5)c4c3)ccc2c1` [Compound 560, N-[1-(1,8-naphthyridin-2-yl)-1H-indol-6-yl]-1,8-naphthyridin-2-amine] yielded an EC50 of 1 to 5 µM.

Turning to `FC(F)(F)c1ccc2c(Cl)cc(Nc3ccc4cc[nH]c4c3)nc2c1` [Compound 562, 4-chloro-N-(1H-indol-6-yl)-7-(trifluoromethyl)quinolin-2-amine], the half-maximal effective concentration (EC50) fell in the range of 5 to 100 µM.

`FC(F)(F)c1cc(Cl)cc2nc(Nc3ccc4cc[nH]c4c3)ccc12` [Compound 563] yielded an EC50 of 0.2 to 1 µM. Turning to `FC(F)(F)c1cc(Cl)c2ccc(Nc3ccc4cc[nH]c4c3)nc2c1` [Compound 564], the EC50 fell in the range of 0.2 to 1 µM. On the same count and under the same terms, for `Cc1cc2ccc(C(F)(F)F)cc2nc1Nc1ccc2cc[nH]c2c1` [Compound 565] the value was 0.2 to 1 µM; for `c1cc2ccc(Nc3ccc4c(n3)CCCC4)cc2[nH]1` [Compound 567, N-(1H-indol-6-yl)-5,6,7,8-tetrahydroquinolin-2-amine], 5 to 100 µM. On to `FC(F)(F)c1nc(Nc2cc(Cl)c3cc[nH]c3c2)ccc1Cl` [Compound 568], for which the concentration for a half-maximal effect (EC50) was 0.2 to 1 µM. Still for that read-out and setting: for `FC(F)(F)c1cc(Nc2ccc3cc[nH]c3c2)nc(Nc2ccc3cc[nH]c3c2)c1` [Compound 570, N2,N6-bis(1H-indol-6-yl)-4-(trifluoromethyl)pyridine-2,6-diamine] the value was 0.2 to 1 µM; for `Cc1nc(Nc2ccc3cc[nH]c3c2)ccc1OC(C)C` [Compound 571, N-[6-methyl-5-(propan-2-yloxy)pyridin-2-yl]-1H-indol-6-amine], 1 to 5 µM; for `O=C(Nc1ccc(C(F)(F)F)cc1)Nc1cc(N2CCCC(Cn3cncn3)C2)c2cc[nH]c2c1` (stereo not drawn) [Compound 572], 5 to 100 µM. On the same count and under the same terms, next, `c1cnc2nc(Nc3ccc4cc[nH]c4c3)ccc2c1` [Compound 573, N-(1H-indol-6-yl)-1,8-naphthyridin-2-amine]: 5 to 100 µM.

As for `FC(F)(F)c1cccc2nc(Nc3ccc4cc[nH]c4c3)ccc12` [Compound 574, N-(1H-indol-6-yl)-5-(trifluoromethyl)quinolin-2-amine], the EC50 lay within 0.2 to 1 µM.

`FC(F)(F)Oc1ccc2c(Cl)cc(Nc3ccc4cc[nH]c4c3)nc2c1` [Compound 576, 4-chloro-N-(1H-indol-6-yl)-7-(trifluoromethoxy)quinolin-2-amine] had an EC50 of 1 to 5 µM. Consider `Clc1cc(Cl)c2ccc(Nc3ccc4cc[nH]c4c3)nc2c1` [Compound 577, 5,7-dichloro-N-(1H-indol-6-yl)quinolin-2-amine], for which the EC50 was 0.2 to 1 µM. In the case of `Cc1cc(Nc2ccc3cc[nH]c3c2)nc(C(F)(F)F)c1` [Compound 578], the EC50 is 0.2 to 1 µM. `FC(F)(F)c1ccc2ccc(Nc3ccc4cc[nH]c4c3)cc2n1` [Compound 579] came in with an EC50 of 1 to 5 µM.

Staying with this experiment, now noted: 15 μM 2′3′cGAMP, 24h, numeric bounds.
`N#Cc1c[nH]c2cc(NC(=O)NCc3cc(Cl)cc(C(F)(F)F)c3)ccc12` [Compound 532]: the half-maximal effective concentration (EC50) was above 30 µM. Molecule `CNC(=O)c1c[nH]c2cc(NC(=O)Nc3ccc(C(F)(F)F)cc3)ccc12` [Compound 541] returned an EC50 above 30 µM. Still for that read-out and setting: for `Cn1cc(-n2cc(C#N)c3ccc(NC(=O)Nc4ccc(C(F)(F)F)cc4)cc32)cn1` [Compound 544] the value was above 30 µM; for `Cn1cc(-c2c[nH]c3cc(NC(=O)Nc4ccc(C(F)(F)F)cc4)ccc23)cn1` [Compound 545], above 30 µM. `Cc1c(Nc2ccc3ccc(C(F)(F)F)cc3n2)ccc2cc[nH]c12` [Compound 557] came in with a half-maximal effective concentration (EC50) above 30 µM.

`Fc1ccc2ccc(Nc3ccc4cc[nH]c4c3)nc2c1` [Compound 559, 7-fluoro-N-(1H-indol-6-yl)quinolin-2-amine] showed a concentration giving a half-maximal response (EC50) above 30 µM. Still for that read-out and setting: next, `COc1nc(Nc2ccc3cc[nH]c3c2)ccc1CO` [Compound 561, {6-[(1H-indol-6-yl)amino]-2-methoxypyridin-3-yl}methanol]: above 30 µM; `c1cc2ccc(Nc3ccc4c(n3)CCC4)nc2[nH]1` [Compound 566]: above 30 µM; `Cc1nc(Nc2ccc3ccn(-c4ccc(OC(C)C)c(C)n4)c3c2)ccc1OC(C)C` [Compound 569, N,1-bis[6-methyl-5-(propan-2-yloxy)pyridin-2-yl]-1H-indol-6-amine]: above 30 µM. `CC(=O)c1ccc2ccc(Nc3ccc4cc[nH]c4c3)nc2c1` [Compound 575, 1-{2-[(1H-indol-6-yl)amino]quinolin-7-yl}ethan-1-one] returned a concentration giving a half-maximal response (EC50) above 30 µM.

The values above are taken from US20230092163A1, “COMPOUNDS AND COMPOSITIONS FOR TREATING CONDITIONS ASSOCIATED WITH STING ACTIVITY” (IFM Due, Inc., priority 2019, published 2023).
